# Laboratory results reported in patent US6545046B2, “Method for enhanced delivery of oxybutynin and compositions thereof” (Theramax Inc., priority 2000, dated 2003).
# Like-named read-outs stand apart in the source and are kept apart here.
# Tests used:
# [1] = In vivo nasal, oral and intravenous delivery of oxybutynin in rats; plasma levels by HPLC; conditions: rat; for bioavailability: read-out: Bioavailability relative to intravenous administration (100%)
# Description: The nasal absorption of oxybutynin was studied using an in vivo technique described previously (1). Male Sprague-Dawley rats (body weight 250±25 gm) were used in these studies. Animals were fasted overnight prior to experimentation. Surgical procedures were performed under equithesin anesthesia (3 ml/kg, i.p.). An incision was made in the neck, and the trachea cannulated with polyethylene tubing (PE-260). A closed end tube was inserted through the esophagus to the posterior part of the nasal cavity to prevent drug from entering the esophagus. The nasopalatine passage was then closed with an adhesive agent to prevent drainage of the drug from the nasal cavity to the mouth.
# Blood samples were collected from a cannula inserted into the femoral artery. For intravenous drug administration, the jugular vein was cannulated.
# Solutions of oxybutynin hydrochloride (5 mg/kg/100 μl) were prepared in normal saline and administered through the right nostril using a microsyringe. For oral administration, rats received an aqueous solution of oxybutynin hydrochloride (5 mg/kg) administered by gavage tube. For intravenous (i.v.) administration, the same dose of oxybutynin was injected into the jugular vein (1 ml/kg body weight). Blood samples after oxybutynin administration were collected before and at […] after drug administration, centrifuged, and serum removed and stored (−70° C.) until analysis.
# Differences in the plasma oxybutynin or N-desethyloxybutynin concentrations between i.v., oral, and nasal delivery routes were compared using the Student's t test.
# Analysis of oxybutynin and its metabolites N-desethyloxybutynin were performed using HPLC as described by Buyse et al. (2). Extraction of standards for calibration curve and plasma samples were performed as described previously by Hughes et al. (3).
# Oxybutynin and its metabolite (N-desethyloxybutynin) were analyzed using a reverse-phase column (25 cm×[…] I.D.) and eluted with mobile phase consisting of 50% acetonitrile in […] potassium phosphate buffer, pH 6.3. The mixture was filtered and degassed prior to use. The flow rate was 0.7 ml/min, and the effluent was monitored with a dual UV detector system at 210 nm.
# All determinations were performed by calculating the area ratios of each compound to the internal standard. Unknown amounts were determined from calibration curves run with each day's unknown analysis.
# [2] = as above; conditions: male, Sprague-Dawley, rat, mean ± SEM, read-out: AUC0-2 h
# [3] = cited from earlier work
# [4] = oral administration (Douchamps et al.); cited from earlier work
Compound,tmax ([1]; intranasal oxybutynin 5 mg/kg),"Ratio N-desethyloxybutynin/Oxybutynin ([1]; intranasal oxybutynin 5 mg/kg, mean ± SEM, 4 rats)",Plasma concentration of N-desethyloxybutynin relative to parent compound oxybutynin ([1]; oral oxybutynin 5 mg/kg),tmax ([1]; oral oxybutynin 5 mg/kg),"AUC(0-t) ([2]; inhaled or intranasal, intranasal oxybutynin 5 mg/kg)",AUC(0-t) ([2]; oral oxybutynin 5 mg/kg),"Patient withdrawal ([3]; intravesical oxybutynin therapy, several studies)","Patients with adverse reactions requiring discontinuance of therapy ([3]; oral 5 mg 3 times daily, clinical studies)","bioavailability ([1]; male, Sprague-Dawley, plasma, other: intranasal, intranasal 5 mg/kg)","bioavailability ([1]; male, Sprague-Dawley, plasma, oral 5 mg/kg)","tmax ([1]; male, Sprague-Dawley, plasma, inhaled or intranasal, 5 mg/kg, intranasal oxybutynin 5 mg/kg, read-out: tmax (converted))","tmax ([1]; male, Sprague-Dawley, plasma, po, 5 mg/kg, oral oxybutynin 5 mg/kg (solution in water), read-out: tmax (converted))",Increase in bioavailability after intranasal compared to oral administration ([1]; 5 mg/kg),tmax ([1]; oral oxybutynin 5 mg/kg (solution in water)),Systemic bioavailability [4]
CCNCC#CCOC(=O)C(O)(c1ccccc1)C1CCCCC1 (stereo not drawn) [N-desethyloxybutynin],96 min,~0.55,approximately 12 fold,66 min,–,–,–,–,–,–,–,–,–,–,–
"CCN(CC)CC#CCOC(=O)C(O)(c1ccccc1)C1CCCCC1 (stereo not drawn) [oxybutynin, Benzeneacetic acid, a-cyclohexyl-a-hydroxy-4-(diethylamino)-2-butynyl ester]",–,–,–,–,1770 ± 190 ng·h/mL,180 ± 53 ng·h/mL,up to 65%,about 20%,90%,~9%,10 min,30 to 40 min,~10 fold,40 min,< 6%
